The results in this text go back to paper PMC12814486 (Bioorganic & medicinal chemistry, 2025).

One data set deals with T1, human sEH (Homo sapiens, UniProt P34913).
T1 sequence (P34913 1-555): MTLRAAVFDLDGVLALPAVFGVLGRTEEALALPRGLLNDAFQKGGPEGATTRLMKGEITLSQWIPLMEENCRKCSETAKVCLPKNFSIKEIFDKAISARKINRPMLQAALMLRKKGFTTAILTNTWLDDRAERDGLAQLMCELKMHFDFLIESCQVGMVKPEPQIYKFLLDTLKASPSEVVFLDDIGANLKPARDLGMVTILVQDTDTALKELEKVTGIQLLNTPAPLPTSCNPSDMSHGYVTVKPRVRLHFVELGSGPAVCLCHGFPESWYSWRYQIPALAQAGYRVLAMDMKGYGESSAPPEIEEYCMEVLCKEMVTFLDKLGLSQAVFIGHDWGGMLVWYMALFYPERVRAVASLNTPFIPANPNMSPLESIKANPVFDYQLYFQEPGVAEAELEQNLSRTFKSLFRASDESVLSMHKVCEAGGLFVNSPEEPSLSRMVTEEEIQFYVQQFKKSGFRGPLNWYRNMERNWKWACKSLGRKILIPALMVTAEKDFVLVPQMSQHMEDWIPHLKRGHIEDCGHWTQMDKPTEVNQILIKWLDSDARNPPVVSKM
The data set can be described thus: sEH inhibition assay. In kind it is biochemical.

Another data set has as its target T2, rat sEH (Rattus norvegicus, UniProt P80299).
T2 sequence (P80299 1-554): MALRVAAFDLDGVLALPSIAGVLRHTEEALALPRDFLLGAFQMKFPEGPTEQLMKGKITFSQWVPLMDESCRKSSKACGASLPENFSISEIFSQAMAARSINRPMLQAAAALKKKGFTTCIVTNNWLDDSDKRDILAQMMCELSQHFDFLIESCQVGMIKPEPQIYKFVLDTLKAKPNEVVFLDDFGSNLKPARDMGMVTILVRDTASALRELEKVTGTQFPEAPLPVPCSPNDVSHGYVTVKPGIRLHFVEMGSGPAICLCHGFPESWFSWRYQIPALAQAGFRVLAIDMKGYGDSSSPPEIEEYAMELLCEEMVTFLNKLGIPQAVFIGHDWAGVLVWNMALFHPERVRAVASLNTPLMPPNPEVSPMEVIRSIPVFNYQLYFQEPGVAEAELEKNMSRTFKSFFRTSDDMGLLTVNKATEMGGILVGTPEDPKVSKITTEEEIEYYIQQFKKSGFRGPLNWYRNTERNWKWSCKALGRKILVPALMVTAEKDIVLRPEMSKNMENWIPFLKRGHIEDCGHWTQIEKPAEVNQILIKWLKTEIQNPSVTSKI
In words: sEH inhibition assay. In kind it is biochemical.

The target of a further data set is T3, mouse sEH (Mus musculus, UniProt P34914).
T3 sequence (P34914 1-554): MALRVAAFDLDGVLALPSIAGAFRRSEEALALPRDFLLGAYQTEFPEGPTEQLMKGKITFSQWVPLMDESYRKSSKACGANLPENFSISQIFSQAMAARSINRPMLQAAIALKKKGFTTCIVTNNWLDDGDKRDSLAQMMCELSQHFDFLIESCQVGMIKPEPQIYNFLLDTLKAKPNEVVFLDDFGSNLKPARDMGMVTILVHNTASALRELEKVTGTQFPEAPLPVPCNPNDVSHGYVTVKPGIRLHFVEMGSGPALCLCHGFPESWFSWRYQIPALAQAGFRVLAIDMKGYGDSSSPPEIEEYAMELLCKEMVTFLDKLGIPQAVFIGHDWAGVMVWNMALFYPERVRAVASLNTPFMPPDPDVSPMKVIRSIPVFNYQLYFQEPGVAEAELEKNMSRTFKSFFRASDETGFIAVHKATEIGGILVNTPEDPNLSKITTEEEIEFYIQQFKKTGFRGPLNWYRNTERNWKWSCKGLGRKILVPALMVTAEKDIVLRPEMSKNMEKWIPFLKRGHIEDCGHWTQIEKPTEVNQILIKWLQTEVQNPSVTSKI
In words: sEH inhibition assay. It counts as biochemical.

The nature of a further data set: Solubility assay. It counts as physicochemical. Conditions: sodium phosphate buffer, pH 7.4, aqueous buffer, kinetic from dmso stock.
Another data set deals with T4, human FAAH (Homo sapiens, UniProt O00519).
T4 sequence (O00519 1-579): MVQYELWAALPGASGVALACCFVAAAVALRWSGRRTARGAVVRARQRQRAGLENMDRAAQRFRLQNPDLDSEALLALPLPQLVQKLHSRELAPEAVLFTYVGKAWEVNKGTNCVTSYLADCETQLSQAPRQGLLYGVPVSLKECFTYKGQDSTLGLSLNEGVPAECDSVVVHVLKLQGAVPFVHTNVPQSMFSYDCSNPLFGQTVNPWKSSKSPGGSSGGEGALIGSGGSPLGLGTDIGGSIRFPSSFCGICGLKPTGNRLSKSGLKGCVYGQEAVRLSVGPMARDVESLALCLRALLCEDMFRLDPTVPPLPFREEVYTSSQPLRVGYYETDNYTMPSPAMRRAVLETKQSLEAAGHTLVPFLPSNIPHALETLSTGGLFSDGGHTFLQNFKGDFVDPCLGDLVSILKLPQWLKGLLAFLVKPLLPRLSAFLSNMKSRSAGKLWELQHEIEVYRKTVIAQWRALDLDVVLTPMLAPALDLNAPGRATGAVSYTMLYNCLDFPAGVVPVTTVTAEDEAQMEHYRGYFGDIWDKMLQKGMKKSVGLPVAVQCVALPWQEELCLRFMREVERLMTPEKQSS
In words: FAAH inhibition assay. In kind it is biochemical.

Another data set concerns the target T5, EH3 (Homo sapiens, UniProt Q9H6B9).
T5 sequence (Q9H6B9 1-360): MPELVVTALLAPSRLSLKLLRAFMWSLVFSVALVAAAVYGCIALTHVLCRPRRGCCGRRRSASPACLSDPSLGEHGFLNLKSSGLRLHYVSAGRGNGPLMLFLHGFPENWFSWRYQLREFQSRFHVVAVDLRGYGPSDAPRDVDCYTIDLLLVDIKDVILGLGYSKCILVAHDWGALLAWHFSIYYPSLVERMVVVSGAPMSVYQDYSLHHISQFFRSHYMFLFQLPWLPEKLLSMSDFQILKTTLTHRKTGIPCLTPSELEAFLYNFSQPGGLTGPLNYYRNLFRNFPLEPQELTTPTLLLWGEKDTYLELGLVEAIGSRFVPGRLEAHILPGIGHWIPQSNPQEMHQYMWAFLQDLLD
The data set can be described thus: EH3 inhibition. In kind it is biochemical. Conditions: see Supplemental Data.

Another data set concerns the target T6, microsomal EH (Homo sapiens, UniProt P07099).
T6 sequence (P07099 1-455): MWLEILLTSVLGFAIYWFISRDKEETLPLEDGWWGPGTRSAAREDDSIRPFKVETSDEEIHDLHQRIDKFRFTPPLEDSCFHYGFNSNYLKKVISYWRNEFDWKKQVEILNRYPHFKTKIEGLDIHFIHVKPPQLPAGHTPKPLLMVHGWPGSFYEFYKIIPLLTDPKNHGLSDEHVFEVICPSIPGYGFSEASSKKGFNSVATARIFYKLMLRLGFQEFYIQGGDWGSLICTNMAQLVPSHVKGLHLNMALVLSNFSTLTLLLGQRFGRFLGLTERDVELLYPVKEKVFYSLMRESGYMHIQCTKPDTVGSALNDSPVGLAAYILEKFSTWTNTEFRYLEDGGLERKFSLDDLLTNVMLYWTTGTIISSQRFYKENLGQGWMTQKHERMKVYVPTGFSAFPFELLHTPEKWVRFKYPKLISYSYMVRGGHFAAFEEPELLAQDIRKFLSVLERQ
The data set can be described thus: Microsomal EH inhibition. Particulars: see Supplemental Data. In kind it is biochemical.

The next data set has as its system male Sprague-Dawley rats. The data set can be described thus: Home cage wheel running. Conditions: 3 mg/kg intraperitoneal, vs vehicle, n = 8/group. In kind it is in vivo, rat.

In brackets after ≈: the same amount, converted by molar mass. Where only a bound is given, the exact number is not on record here.

Regarding `O=C(Nc1ccc(-c2nnnn2Cc2ccccc2)cc1)C1CCN(S(=O)(=O)c2ccccc2Cl)CC1` [Compound 4p, N-(4-(1-benzyl-1H-tetrazol-5-yl)phenyl)-1-((2-chlorophenyl)sulfonyl)piperidine-4-carboxamide], the IC50 against human sEH is 9.8 nM; at rat sEH, 25.5 nM; against mouse sEH, 106 nM; against human FAAH, greater than 10000 nM. In the data set “Solubility assay”, this compound returned a solubility of 31 to 63 µM (≈ 16.6 to 33.8 µg/mL).
Consider `COc1cnc(-n2nnnc2-c2ccc(NC(=O)C3CCN(S(=O)(=O)c4ccccc4Cl)CC3)cc2)c(OC)n1` [Compound 4q, 1-((2-chlorophenyl)sulfonyl)-N-(4-(1-(3,5-dimethoxypyrazin-2-yl)-1H-tetrazol-5-yl)phenyl)piperidine-4-carboxamide], for which the IC50 on human sEH was 213 nM; against rat sEH, 305 nM; against mouse sEH, 264 nM; on human FAAH, greater than 10000 nM. In addition, in the data set “Solubility assay”, the solubility is 31 to 63 µM (≈ 18.1 to 36.9 µg/mL).
For `COc1cn2c(-c3ccc(NC(=O)C4CCN(S(=O)(=O)c5ccccc5Cl)CC4)cc3)nnc2c(OC)n1` [Compound 4r, 1-((2-chlorophenyl)sulfonyl)-N-(4-(6,8-dimethoxy-[1,2,4]triazolo[4,3-a]pyrazin-3-yl)phenyl)piperidine-4-carboxamide], the IC50 at human sEH is 19.4 nM; on rat sEH, 21.8 nM; against mouse sEH, 9 nM; on human FAAH it was greater than 10000 nM. On EH3, the “inhibition of EH3” value was “does not inhibit”. Further, at microsomal EH, the “inhibition of microsomal EH” value is listed as “does not inhibit”. Further, the solubility in the data set “Solubility assay” is 31 to 63 µM (≈ 17.3 to 35.1 µg/mL).
On to `CN1CC[C@]23c4c5ccc(O)c4O[C@H]2[C@@H](O)C=C[C@H]3[C@H]1C5` [morphine, reference compound], for which the “wheel revolutions in the 15 min after drug injection” value in the data set on male Sprague-Dawley rats is reported as “significantly lower”.

Broadly, the IC50 is the concentration at which inhibition is half-maximal. High values mean weaker potency, low ones greater potency. In general, solubility refers to the dissolved amount per volume that the medium holds. Low values mean a poorly soluble substance, high ones a readily soluble substance.
